Measurements: patent publication US10730870B2, “Compounds and methods for the enhanced degradation of targeted proteins” (Arvinas, Inc., priority 2015, dated 2020)

Biological target: VHL (Homo sapiens (Human), UniProt P40337)
Test: VHL fluorescence polarization (FP) competition assay
Assay type: binding

IC50 (1% in DMSO) [nM]	IC50 (10% in DMSO) [nM]	IC50 (0.25% in DMSO) [nM]	VHL FP Assay IC50 (1% in DMSO)	VHL FP Assay IC50 (10% in DMSO)	SMILES
6200	–	–	–	–	CCC[C@H](NC(C)=O)C(=O)N1C[C@H](O)C[C@H]1C(=O)NCc1ccc(-c2scnc2C)cc1 [Example 148, (2S,4R)-1-((S)-2-acetamidopentanoyl)-4-hydroxy-N-(4-(4-methylthiazol-5-yl)benzyl)pyrrolidine-2-carboxamide]
906	1200	–	–	–	Cc1ncsc1-c1ccc(CNC(=O)[C@@H]2C[C@@H](O)CN2C(=O)[C@@H](NC(=O)c2ccc(C#N)cc2)C(C)(C)C)cc1 [Example 43, (2S,4R)-1-((S)-2-(4-cyanobenzamido)-3,3-dimethylbutanoyl)-4-hydroxy-N-(4-(4-methylthiazol-5-yl)benzyl)pyrrolidine-2-carboxamide]
265	1800	2950	–	–	Cc1ncsc1-c1ccc(CNC(=O)[C@@H]2C[C@@H](O)CN2C(=O)[C@H](C(C)C)N2Cc3cc(F)ccc3C2=O)cc1 [Example 16, (2S,4R)-1-((S)-2-(5-fluoro-1-oxoisoindolin-2-yl)-3-methylbutanoyl)-4-hydroxy-N-(4-(4-methylthiazol-5-yl)benzyl)pyrrolidine-2-carboxamide]
1640	1580	–	–	–	Cc1ncsc1-c1ccc(CNC(=O)[C@@H]2C[C@@H](O)CN2C(=O)[C@H](C(C)C)N2Cc3ccccc3C2=O)c(F)c1 [Example 82, (2S,4R)—N-(2-fluoro-4-(4-methylthiazol-5-yl)benzyl)-4-hydroxy-1-((S)-3-methyl-2-(1-oxoisoindolin-2-yl)butanoyl)pyrrolidine-2-carboxamide]
937	1650	3770	–	–	Cc1ncsc1-c1ccc(CNC(=O)[C@@H]2C[C@@H](O)CN2C(=O)[C@@H](NC(=O)CC2CCCCC2)C(C)(C)C)cc1 [Example 19, (2S,4R)-1-((S)-2-(2-cyclohexylacetamido)-3,3-dimethylbutanoyl)-4-hydroxy-N-(4-(4-methylthiazol-5-yl)benzyl)pyrrolidine-2-carboxamide]
~32000	472000	–	–	–	Cc1ncsc1-c1ccc(CNC(=O)[C@@H]2C[C@@H](O)CN2C(=O)[C@H]([C@H](C)O)N2Cc3ccccc3C2=O)cc1 [Example 45, (2S,4R)-4-hydroxy-1-((2S,3S)-3-hydroxy-2-(1-oxoisoindolin-2-yl)butanoyl)-N-(4-(4-methylthiazol-5-yl)benzyl)pyrrolidine-2-carboxamide]
4230	–	–	–	–	Cc1ncsc1-c1ccc(CNC(=O)[C@@H]2C[C@@H](O)CN2C(=O)[C@@H](NC(=O)[C@H](C)N)C(C)(C)C)cc1 [Example 123, (2S,4R)-1-((S)-2-((S)-2-aminopropanamido)-3,3-dimethylbutanoyl)-4-hydroxy-N-(4-(4-methylthiazol-5-yl)benzyl)pyrrolidine-2-carboxamide]
2180	–	–	–	–	Cc1ncsc1-c1ccc(CNC(=O)[C@@H]2C[C@@H](O)CN2C(=O)[C@@H](NC(=O)[C@H](C)NC(=O)OC(C)(C)C)C(C)(C)C)cc1 [Example 122, tert-butyl (S)-1-((S)-1-((2S,4R)-4-hydroxy-2-(4-(4-methylthiazol-5-yl)benzylcarbamoyl)pyrrolidin-1-yl)-3,3-dimethyl-1-oxobutan-2-ylamino)-1-oxopropan-2-ylcarbamate]
8650	28000	1390	–	–	CC(C)[C@@H](C(=O)N1C[C@H](O)C[C@H]1C(=O)N[C@@H](C)c1ccc(Br)cc1)N1Cc2ccccc2C1=O [Example 24, (2S,4R)—N—((S)-1-(4-bromophenyl)ethyl)-4-hydroxy-1-((S)-3-methyl-2-(1-oxoisoindolin-2-yl)butanoyl)pyrrolidine-2-carboxamide]
–	–	–	Not Active	Not Active	Cc1ncsc1-c1ccc(CNC(=O)[C@@H]2CC(=O)CN2C(=O)[C@H](C(C)C)N2Cc3ccccc3C2=O)cc1 [Example 61, (S)-1-((S)-3-methyl-2-(1-oxoisoindolin-2-yl)butanoyl)-N-(4-(4-methylthiazol-5-yl)benzyl)-4-oxopyrrolidine-2-carboxamide]
2210	3600	4470	–	–	Cc1ncsc1-c1ccc(CNC(=O)[C@@H]2C[C@@H](O)CN2C(=O)[C@@H](NC(=O)CCC(C)C)C(C)(C)C)cc1 [Example 28, (2S,4R)-1-((S)-3,3-dimethyl-2-(4-methylpentanamido)butanoyl)-4-hydroxy-N-(4-(4-methylthiazol-5-yl)benzyl)pyrrolidine-2-carboxamide]
–	–	–	Not Active	–	Cc1ncsc1-c1ccc(CNC(=O)C2(C)C[C@@H](O)CN2C(=O)[C@H](C(C)C)N2Cc3ccccc3C2=O)cc1 (stereo partly shown) [Example 131]
1280	2110	3220	–	–	CC[C@H](C)[C@H](NC(=O)CCC(C)C)C(=O)N1C[C@H](O)C[C@H]1C(=O)NCc1ccc(-c2scnc2C)cc1 [Example 31, (2S,4R)-4-hydroxy-1-((2S,3S)-3-methyl-2-(4-methylpentanamido)pentanoyl)-N-(4-(4-methylthiazol-5-yl)benzyl)pyrrolidine-2-carboxamide]
905	1850	2420	–	–	Cc1ncsc1-c1ccc(CNC(=O)[C@@H]2C[C@@H](O)CN2C(=O)[C@@H](NC(=O)c2ccccc2)C(C)(C)C)cc1 [Example 29, (2S,4R)-1-((S)-2-benzamido-3,3-dimethylbutanoyl)-4-hydroxy-N-(4-(4-methylthiazol-5-yl)benzyl)pyrrolidine-2-carboxamide]
964	–	–	–	–	CCC(C(=O)N1C[C@H](O)C[C@H]1C(=O)NCc1ccc(-c2scnc2C)cc1)c1cc(C)no1 (stereo partly drawn) [Example 143, (2S,4R)-4-hydroxy-1-(2-(3-methylisoxazol-5-yl)butanoyl)-N-(4-(4-methylthiazol-5-yl)benzyl)pyrrolidine-2-carboxamide]
699	1630	958	–	–	Cc1ncsc1-c1ccc([C@H](C)NC(=O)[C@@H]2C[C@@H](O)CN2C(=O)[C@H](C(C)C)N2Cc3ccccc3C2=O)cc1 [Example 39, (2S,4R)-4-hydroxy-N-[(1S)-1-[4-(4-methyl-1,3-thiazol-5-yl)phenyl]ethyl]-1-[(2S)-3-methyl-2-(1-oxo-2,3-dihydro-1H-isoindol-2-yl)butanoyl]pyrrolidine-2-carboxamide]
134000	–	–	–	–	Cc1ncsc1-c1ccc(CNC(=O)[C@@H]2C[C@@](C)(O)CN2C(=O)[C@H](C(C)C)N2Cc3ccccc3C2=O)cc1 [Example 142, (2S,4R)-4-hydroxy-4-methyl-1-((S)-3-methyl-2-(1-oxoisoindolin-2-yl)butanoyl)-N-(4-(4-methylthiazol-5-yl)benzyl)pyrrolidine-2-carboxamide]
1220	1940	3340	–	–	C=Cc1ncsc1-c1ccc(CNC(=O)[C@@H]2C[C@@H](O)CN2C(=O)[C@H](C(C)C)N2Cc3ccccc3C2=O)cc1 [Example 4, (2S,4R)-4-hydroxy-1-((S)-3-methyl-2-(1-oxoisoindolin-2-yl)butanoyl)-N-(4-(4-vinylthiazol-5-yl)benzyl)pyrrolidine-2-carboxamide]
–	–	–	Not Active	Not Active	Cc1ncsc1-c1ccc(CNC(=O)[C@@H]2C[C@](C)(O)CN2C(=O)[C@H](C(C)C)N2Cc3ccccc3C2=O)cc1 [Example 62, (2S,4S)-4-hydroxy-4-methyl-1-((S)-3-methyl-2-(1-oxoisoindolin-2-yl)butanoyl)-N-(4-(4-methylthiazol-5-yl)benzyl)pyrrolidine-2-carboxamide]
